The values that follow come from ChEMBL document CHEMBL3112559, “Photodynamic inactivation of bioluminescent Escherichia coli by neutral and cationic pyrrolidine-fused chlorins and isobacteriochlorins” (Bioorg Med Chem Lett, 2014).

Activity calls are given as the source filed them. The rule behind the calls is not given here.

Data set [1] concerns Escherichia coli. Kind of data set: Antibacterial activity against Escherichia coli transfected with Vibrio fischeri lux operon assessed as log reduction of bioluminescence at 5 uM incubated for 10 mins in dark followed by 43.2 J cm'-2 white light irradiation for 180 mins by luminometry relative to control. It is filed as functional.
Data set [2] relates to Escherichia coli. Kind of data set: Dark toxicity in recombinant Escherichia coli transfected with Vibrio fischeri lux operon at 5 uM after 10 mins by luminometry. It is filed as organism-based. Conditions: in vivo.
Data set [3] has as its system Escherichia coli. Description: Antibacterial activity against Escherichia coli assessed as log reduction of bioluminescence at 1 uM incubated for 30 mins followed by 10 J cm'-2 laser light irradiation relative to control. The class given is functional.
For a further data set, the system named is Staphylococcus aureus. Kind of data set: Antibacterial activity against Staphylococcus aureus assessed as log reduction of bioluminescence at 1 uM incubated for 30 mins followed by 10 J cm'-2 laser light irradiation relative to control. It is filed as functional.
Data set [4] has as its system Escherichia coli. Description: Antibacterial activity against Escherichia coli transfected with Vibrio fischeri lux operon assessed as log reduction of bioluminescence at 20 uM incubated for 10 mins in dark followed by 36 J cm'-2 white light irradiation for 150 mins by luminometry relative to control. It is filed as functional.
The subject of data set [5] is Escherichia coli. Kind of data set: Dark toxicity in recombinant Escherichia coli transfected with Vibrio fischeri lux operon at 20 uM after 10 mins by luminometry. It is filed as organism-based. The note with it: in vivo.
Data set [6] relates to Escherichia coli. Description: Antibacterial activity against Escherichia coli transfected with Vibrio fischeri lux operon assessed as log reduction of bioluminescence at 20 uM incubated for 10 mins in dark followed by 43.2 J cm'-2 white light irradiation for 180 mins by luminometry relative to control. It is filed as functional.

For `CN1CC2c3nc(c(-c4c(F)c(F)c(F)c(F)c4F)c4ccc([nH]4)c(-c4c(F)c(F)c(F)c(F)c4F)c4nc(c(-c5c(F)c(F)c(F)c(F)c5F)c5ccc([nH]5)c3-c3c(F)c(F)c(F)c(F)c3F)C=C4)C2C1` (configuration not stated), in the data set with Escherichia coli [1], the FC turned out to be 0.57. Further, the Activity result in the data set on Escherichia coli [2] is recorded as “Non-toxic”.
As to `CC1(C)Cc2cc3[nH]c(cc4nc(cc5[nH]c(cc1n2)cc5C(=O)NCCC[N+](C)(CCC[N+](C)(C)C)CCC[N+](C)(C)C)CC4(C)C)cc3C(=O)NCCC[N+](C)(CCC[N+](C)(C)C)CCC[N+](C)(C)C`, the FC with Escherichia coli [3] and in the data set on Staphylococcus aureus was 6 throughout.
As to `C[N+]1(C)CC2c3nc(c(-c4c(F)c(F)c(F)c(F)c4F)c4ccc([nH]4)c(-c4c(F)c(F)c(F)c(F)c4F)c4nc(c(-c5c(F)c(F)c(F)c(F)c5F)c5ccc([nH]5)c3-c3c(F)c(F)c(F)c(F)c3F)C=C4)C2C1.[I-]` (configuration not stated), the outcome in the data set with Escherichia coli [4] was Active. Further, the FC in the data set on Escherichia coli [1] was found to be 0.77. Also, in the data set on Escherichia coli [5], the Activity entry is given as “Non-toxic”.
`CN1CC2c3nc(c(-c4c(F)c(F)c(F)c(F)c4F)c4ccc([nH]4)c(-c4c(F)c(F)c(F)c(F)c4F)c4nc(c(-c5c(F)c(F)c(F)c(F)c5F)c5[nH]c(c3-c3c(F)c(F)c(F)c(F)c3F)C3CN(C)CC53)C=C4)C2C1` (configuration not stated): the FC in the data set with Escherichia coli [6] is recorded as 0.24. Moreover, in the data set with Escherichia coli [5], the Activity entry is “Non-toxic”.
With `C[N+]1(C)CC2c3nc(c(-c4c(F)c(F)c(F)c(F)c4F)c4ccc([nH]4)c(-c4c(F)c(F)c(F)c(F)c4F)c4nc(c(-c5c(F)c(F)c(F)c(F)c5F)c5[nH]c(c3-c3c(F)c(F)c(F)c(F)c3F)C3C[N+](C)(C)CC53)C=C4)C2C1.[I-].[I-]` (configuration not stated), the figures for the FC in the data set on Escherichia coli [4] and with Escherichia coli [1] were 6.1 and above 5, respectively. Further, the Activity result in the data set on Escherichia coli [5] is on record as “Non-toxic”.
